Data taken from US20220338465A1, “FLUIDIC PLATFORMS FOR PERFUSABLE VASCULARIZED TISSUES” (Massachusetts Institute of Technology, priority 2021, published 2022).
Entries after “also recorded” stand apart in the source; their conditions may differ.

Experiments:
MMP-1 = target: T1, MMP-1 (Homo sapiens, UniProt P03956); details: cited from earlier work
T1 sequence (P03956 100-469): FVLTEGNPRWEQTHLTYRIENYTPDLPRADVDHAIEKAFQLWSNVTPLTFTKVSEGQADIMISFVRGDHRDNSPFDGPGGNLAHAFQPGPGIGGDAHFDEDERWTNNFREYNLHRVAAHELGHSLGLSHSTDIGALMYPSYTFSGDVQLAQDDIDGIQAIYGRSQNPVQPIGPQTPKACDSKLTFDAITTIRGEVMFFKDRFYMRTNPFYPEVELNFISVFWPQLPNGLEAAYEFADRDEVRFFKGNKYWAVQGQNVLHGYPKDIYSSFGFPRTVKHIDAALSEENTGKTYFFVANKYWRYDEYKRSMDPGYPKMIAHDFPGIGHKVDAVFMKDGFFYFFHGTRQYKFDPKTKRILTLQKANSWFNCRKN

MMP-7 = target: T2, MMP-7 (Homo sapiens, UniProt P09237); details: cited from earlier work
T2 sequence (P09237 95-267): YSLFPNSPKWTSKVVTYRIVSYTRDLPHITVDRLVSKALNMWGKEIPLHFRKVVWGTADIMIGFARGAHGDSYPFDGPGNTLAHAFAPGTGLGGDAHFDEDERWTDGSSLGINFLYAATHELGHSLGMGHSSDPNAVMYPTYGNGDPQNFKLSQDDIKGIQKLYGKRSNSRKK

MMP-2 = target: T3, MMP-2 (Homo sapiens, UniProt P08253); details: cited from earlier work
T3 sequence (P08253 110-660): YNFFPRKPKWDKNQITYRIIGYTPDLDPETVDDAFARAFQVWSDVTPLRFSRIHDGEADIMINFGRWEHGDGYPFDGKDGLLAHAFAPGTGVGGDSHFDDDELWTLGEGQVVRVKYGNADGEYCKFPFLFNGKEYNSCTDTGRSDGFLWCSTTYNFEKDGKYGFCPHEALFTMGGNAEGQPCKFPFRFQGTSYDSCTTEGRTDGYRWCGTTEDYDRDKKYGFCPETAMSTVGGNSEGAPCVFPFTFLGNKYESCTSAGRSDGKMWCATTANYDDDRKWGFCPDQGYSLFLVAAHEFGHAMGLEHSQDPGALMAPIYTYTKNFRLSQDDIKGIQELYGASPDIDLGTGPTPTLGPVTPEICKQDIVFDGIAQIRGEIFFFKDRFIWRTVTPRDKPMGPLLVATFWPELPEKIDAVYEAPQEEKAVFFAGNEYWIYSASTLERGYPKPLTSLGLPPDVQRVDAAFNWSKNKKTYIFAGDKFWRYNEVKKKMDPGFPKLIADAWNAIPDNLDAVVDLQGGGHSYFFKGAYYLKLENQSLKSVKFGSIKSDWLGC

HUVEC monoculture = experiment: Inhibitory tests on MVN formation by HUVEC monoculture in fibrin gel under IF, single channel device; assay type: cell-based, human
Procedure: (§1) FIGS. 8A-8E are graphs showing that IF enhances the vasculogenesis ability of EC through upregulation of MMP-2. MVN was formed statically with HUVEC monoculture in 3-channel device MVN was formed with HUVEC monoculture in single channel device under IF induced by 10 mm H2O pressure difference, or with various inhibitors added: 100 μM PAI-1, 200 U/ml aprotinin, 50 μM marimast, 50 μM NSC 405020, 100 μg/ml MMP-1 neutralizing antibody and 100 μg/ml control antibody. Samples were pooled at day 3. n=3 FIGS. 8A-8D are graphs showing the statistical analysis of morphological parameters and perfusability of perfusable vessels cultured with various concentration of ARP-100. IF induced by 10 mm H2O pressure difference were applied to all cases. n=5 devices for control, n=3 devices for each inhibitor treated group. Significance was calculated with two sample t tests. ***P<0.01. FIG. 8E is a graph of vascular permeability measurements of 40 kDa dextran for perfusable MVNs formed under various conditions. n=3 devices for each group, 3 measurements were performed in each device at different ROIs.
(§2) Green fluorescent protein (“GFP”) tagged human umbilical vein endothelial cells (HUVECs) and human lung fibroblasts (HLFs) were seeded in a 7:1 ratio for all static and IF experiments. Devices were imaged under confocal microscopy with dextran dye perfused at day 6, when MVN were interconnected and perfusable. Devices were seeded with HUVECs and HLFs in combination and HUVECs alone.
(§3) Perfusability is a crucial factor when evaluating the quality of engineered MVN, since the major function of vessels is to transport nutrients, oxygen, metabolic wastes and various cells through perfusable lumens. Perfusability is measured as the ratio between dextran dye cover area (perfusable vessels) and GFP HUVEC cover area (all the vessels). […] To better interpret perfusability, MVN with at least one perfusable vessels across the gel region is defined as partially perfusable, and MVN with perfusability over 80% is defined as fully perfusable.
HUVEC monoculture of the same concentration were also seeded in single channel devices of FIG. 5B and subjected to IF.
Culture media was also supplemented with high concentration (100 uM) plasminogen activator inhibitor-1, which inhibits both uPA and tPA, or aprotinin, which inhibits plasmin.
ARP-100 (IC50 values are 12, 200, 4500, >50000 and >50000 nM for MMP-2, -9, -3, -1, -7, respectively) and NSC 405020 (selective inhibitor of the collagenolytic activity of MT1-MMP without affecting the catalytic activity of cellular MT1-MMP) were tested as specific inhibitors for MMP-2 and MMP-14. 14. High concentrations of anti-MMP-1 neutralizing antibody were used to inhibit MMP-1 activity

[1] = test system: MVN formed by HUVEC monoculture; experiment: Vascular permeability of 40 kDa dextran in perfusable MVN; assay type: cell-based, human; details: HUVEC monoculture with 10 μM inhibitor under IF
Procedure: as §1, with “FIG. 8E is a graph of vascular permeability measurements of 40 kDa dextran for perfusable MVNs formed under various conditions. n=3 devices for each group, 3 measurements were performed in each device at different ROIs.” left out
In summary, MVN formed without supporting cells tends to be leakier. Since vascular permeability is a critical aspect of functionality of engineered MVN, vascular permeability of 40 kD dextran was measured and compared under various conditions where perfusable vessels can be robustly formed. […] Moreover, all the measurements were in the order of 10^−8 cm/s, which are quite low for vascular permeability measured using 40 kDa dextran. […]

[2] = test system: primary human brain endothelial cells (BECs), brain pericytes, and astrocytes; experiment: BBB MVN formation under IF with MMP-2 specific inhibitor; assay type: cell-based
Procedure: BBB MVN were formed, consisting of primary human brain endothelial cells (BECs), brain pericytes, and astrocytes.
Triculture were then seeded into single channel devices and grown under IF.
All MVN tissues were immunstained and studied for histology and morphology. Quantitative PCR was also performed to measure MMP-2 levels. The effect of a MMP-2 specific inhibitor was also tested in the BBB model to antagonize the effect induced by IF, as observed in MVNs formed with HUVEC monoculture or HUVEC and HLF co-culture.

HUVEC and HLF coculture = experiment: MVN formation by HUVEC and HLF coculture under IF with MMP-2 inhibitor; assay type: cell-based, human; details: 20 uM
Procedure: FIGS. 10A-10D are graphs showing that IF enhances formation of fully perfusable microvascular network made by HUVEC and HLF. FIGS. 10A-10D are Statistical analysis of morphological parameters and perfusability of perfusable vessels cultured with various concentration of ARP-100. n=6 devices for control, n=3 devices for each inhibitor treated group. Significance was calculated with two sample t tests. ***P<0.01.
as §2, §3

MMP-3 = MMP-3 (Homo sapiens, UniProt P08254); details: cited from earlier work
MMP-9 = MMP-9 (Homo sapiens, UniProt P14780); details: read-out: IC50 for MMP-9; cited from earlier work
MMP-9, sequence (P14780 94-707): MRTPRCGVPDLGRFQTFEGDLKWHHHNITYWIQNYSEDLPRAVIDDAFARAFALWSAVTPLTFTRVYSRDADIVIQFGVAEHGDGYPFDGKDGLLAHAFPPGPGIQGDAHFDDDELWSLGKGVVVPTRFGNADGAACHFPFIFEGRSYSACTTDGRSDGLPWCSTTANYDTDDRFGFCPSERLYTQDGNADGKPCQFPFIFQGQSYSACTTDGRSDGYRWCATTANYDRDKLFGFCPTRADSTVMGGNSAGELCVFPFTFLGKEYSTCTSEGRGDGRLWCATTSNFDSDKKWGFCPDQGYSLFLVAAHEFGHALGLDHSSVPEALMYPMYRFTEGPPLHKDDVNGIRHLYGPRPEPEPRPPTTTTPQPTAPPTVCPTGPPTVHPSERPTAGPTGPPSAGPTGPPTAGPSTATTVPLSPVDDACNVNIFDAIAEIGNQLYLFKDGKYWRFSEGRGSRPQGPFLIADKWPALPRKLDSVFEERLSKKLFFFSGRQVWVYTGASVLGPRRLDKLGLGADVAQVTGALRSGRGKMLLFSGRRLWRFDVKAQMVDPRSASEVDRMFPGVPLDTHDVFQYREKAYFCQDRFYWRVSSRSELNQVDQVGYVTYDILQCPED

MMP-3, sequence (P08254 100-477): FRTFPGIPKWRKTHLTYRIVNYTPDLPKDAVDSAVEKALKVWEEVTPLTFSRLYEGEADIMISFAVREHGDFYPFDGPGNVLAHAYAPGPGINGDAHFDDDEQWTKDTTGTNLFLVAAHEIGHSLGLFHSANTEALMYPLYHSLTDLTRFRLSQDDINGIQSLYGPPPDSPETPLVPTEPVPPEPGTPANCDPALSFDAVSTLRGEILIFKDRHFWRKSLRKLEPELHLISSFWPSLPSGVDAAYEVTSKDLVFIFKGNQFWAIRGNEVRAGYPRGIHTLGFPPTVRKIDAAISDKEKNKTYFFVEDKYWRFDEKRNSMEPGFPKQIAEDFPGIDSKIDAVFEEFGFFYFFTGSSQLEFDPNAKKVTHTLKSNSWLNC

Compound: CC(C)ON(CC(=O)NO)S(=O)(=O)c1ccc(-c2ccccc2)cc1 [ARP-100]
- IC50 (MMP-1): > 50000 nM
- IC50 (MMP-7): > 50000 nM
- IC50 (MMP-2): 12 nM
- MVN morphology (vessel diameter, coverage area, branches) (HUVEC monoculture; 10 μM): significantly narrower vessels, reduced coverage area and increased branches; also recorded: effectively reduced the average diameter and coverage area of vessels
- perfusability of MVN (HUVEC monoculture; 10 μM, in comparison with control group): perfusability well maintained
- perfusion of MVN with dextran dye (HUVEC monoculture; 20 μM): no vessels can be successfully perfused with dextran dye
- network structure development (HUVEC monoculture; 50 uM, day 5): complete failure in developing network structure
- vascular permeability of 40 kD dextran [1]: ~10^−8 cm/s
- BBB network vessel morphology ([2]; day 3, 20 uM compared with 10 μM): thinner and sparser vessels
- BBB network perfusability and morphology ([2]; day 6, higher concentration (20 uM)): disconnected thin network segments without any perfusable vessels
- BBB network perfusability and morphology ([2]; day 6, low concentration (10 μM)): became perfusable with much thinner vessels compared to untreated ones
- perfusability of MVN (HUVEC and HLF coculture): can maintain high perfusability
- IC50 (MMP-3): 4500 nM
- IC50 (MMP-9): 200 nM

Compound: CCCC(C)NC(=O)c1ccc(Cl)c(Cl)c1 (stereo not drawn) [NSC 405020]
- changes in formed MVN (HUVEC monoculture; 50 μM): didn't induce any noticeable changes in formed MVN

Compound: CNC(=O)[C@@H](NC(=O)[C@H](CC(C)C)[C@H](O)C(=O)NO)C(C)(C)C [marimast]
- vessel formation (HUVEC monoculture; 50 μM, 5 days): completely disrupted the vessel formation process

Compound: aprotinin
- development of fully perfusable MVN (HUVEC monoculture; 200 U/ml in culture media): did not affect the development of fully perfusable MVN

Compound: plasminogen activator inhibitor-1
- development of fully perfusable MVN (HUVEC monoculture; 100 uM in culture media): did not affect the development of fully perfusable MVN
